Measurements taken from US20190029987A1, “DIMETHYL FUMARATE (DMF) FOR PREVENTION OR TREATMENT OF GOUT, ACNE, DIABETES, VITILIGO AND/OR PYODERMA GANGRENOSUM” (UNIVERSITAT ZURICH, priority 2016, published 2019).
Where a name gives a salt, the structure may show the parent alone.

Key:
Nrf2 [1] = experiment: UVB-induced Nrf2 degradation in HPKs (Western blot); type: cell-based, human; details: harvested after 1 h, FIG. 7D
Source text: Next, the inventors investigated the activity of Nrf2 upon activation of the NLRP3 inflammasome, since inflammasome activation is ROS-dependent. […] This is surprising, since UVB irradiation is a strong inducer of ROS production and it can be anticipated that the cells would benefit from Nrf2 activation. UVB-induced secretion by HPKs requires expression of NLRP1 and NLRP3 [21]. Both nigericin and MSU crystals are considered as “true” NLRP3 activators, but HPKs cannot phagocytose MSU crystals. Therefore, the inventors treated HPKs with nigericin only and THP-1 cells with either of these NLRP3 activators. […] Therefore, NLRP3 inflammasome activation most likely induces Nrf2 protein degradation. […] However, inflammasome activation-induced Nrf2 degradation was blocked upon ablation of ASC or NLRP3 expression (FIG. 4G) and upon treatment of cells with the ROS blocker PDTC or the Ca2+ chelator BAPTA-AM (Supplementary FIG. 2D). […] However, inflammasome function was not impaired, as reflected by normal processing of pro-IL-18 (FIG. 4H). Although Keap1 expression is partially dispensable for Nrf2 degradation by inflammasome activation, the transcription factor is directed to the proteasome under these conditions, since Nrf2 degradation was inhibited by the proteasome inhibitor MG132 (FIG. 4I and FIG. 7D).
(§1) FIG. 7: (A-C) HPKs were transfected with siRNAs for 3 d as indicated. Scrambled (scr) siRNA and siRNA targeting the unrelated vascular endothelial growth factor (VEGF) served as controls. Western blots of (A) total lysates or (B) nuclear and cytoplasmic lysates and (C) qRT-PCR for expression of target gene expression. (D) HPKs were treated with MG132 (1 μM), PDTC (500 μM) or BAPTA-AM (12.5 μM) for 10 min and harvested (before UV) or irradiated with UVB and harvested after 1 h. Western blots showing expression of Nrf2. (E) Differentiated and primed THP-1 cells were pretreated with cycloheximide (CHX, 30 μg/ml) for 1 h before priming cells with upLPS overnight. Western blots show expression of the indicated proteins. […] Statistics: (C) Mann-Whitney test, related to scr control. *P≤0.05

[2] = tested on: Nrf2 target genes Gstp1, Nqo1 and Srxn1; experiment: Nrf2 target gene expression in liver of treated mice (qRT-PCR); type: in vivo, mouse; details: oral gavage 20 mg/kg, FIG. 3F
Experimental: (§7) Monosodium urate (MSU) crystal-induced peritonitis is a mouse model of inflammation and gout, which is dependent on IL-1, IL-1R1, MyD88 and the NLRP3 inflammasome. […] The inventors chose a different way of administration and supplied mice with SFN or DMF by oral gavage to determine a potential anti-inflammatory activity of the Nrf2 activators in vivo (FIG. 3). […] The inventors analysed the cellular infiltrate in the peritoneum 6 h post injection of MSU crystals.
qRT-PCR was performed with the LightCycler 480 SYBR Green Master or the FastStart Universal SYBR Green Master (both Roche, Rotkreuz, Switzerland) using total cellular RNA. Specific primer pairs (Supplementary Table 2) were designed to generate an approximately 150 bp fragment flanking an intron-exon border of the corresponding gene. […]
Mice treated by gavage with (A, B, C) SFN (25 mg/kg) in PBS or (D, E, F) DMF (20 mg/kg) in H2O containing 0.08% methocel and 10% DMSO, vehicle-treated mice served as control. […] Peritonitis was induced by peritoneal injection of 2 mg MSU crystals, (B, E) After 6 h the number of neutrophils of the peritoneal lavage was determined by flow cytornetry. (C, F) At the same time, the liver was isolated and analysed for the expression of the Nrf2 target genes Gstp1, Nqo1 and Srxn1 by qRT-PCR. […]

NLRP3 inflammasome [3] = molecular target: T1, NLRP3 inflammasome (Homo sapiens, UniProt Q96P20); experiment: Inflammasome activation by nigericin/MSU in differentiated, primed THP-1 cells (IL-1β ELISA, Western blot); type: cell-based; details: THP-1, 50 μM 1 h before 5 μM nigericin or 150 μg/ml MSU, 5 h, FIG. 2B
T1 construct: endogenous in cells
Source text: (§2) To determine the effects of Nrf2 activating compounds on inflammasome activation, the inventors treated keratinocytes with different doses of SFN, tBHQ, DMF or 15d-PGJ2 and irradiated the cells with UVB.
(§3) SFN, DMF, 15d-PGJ2, tBHQ, zymosan, ATP, poly(dA:dT), cycloheximide, puromycin, and doxycycline were purchased from Sigma (Munich, Germany), nigericin from Enzo Life Sciences (New York, US-NY), MG132 from Calbiochem (Darmstadt, Germany), and blasticidin from Invivogen (Toulouse, France). Release of IL-1p was determined by ELISA according the instructions of the manufacturer (R&D Systems, Minneapolis, US-MN). MSU crystals were prepared by crystallisation of a supersaturated solution of uric acid under mildly basic conditions. Briefly, uric acid was added to a solution of NaOH, the solution was boiled until the uric acid was dissolved and passed through a filter. NaCl was added and crystallisation was performed at 4° C. Crystals were filtered, then dried using a speedvac, weighted and autoclaved.
(§4) (A) HPKs were treated with the indicated concentrations of the Nrf2 activating compound tBHQ irradiated with UVB 30 min later and harvested after 5 h. ELISA measurements were performed for quantification of IL-1β secretion and Western blots for analysis of expression and activation of the indicated proteins. Specific bands are marked with an asterisk. (B) THP-1 cells were differentiated with PMA (27 nM) for 3 d, primed with upLPS (100 ng/ml) overnight, and 1 h before inflammasome activation (5 μM nigericin, 150 μg/ml MSU) treated with SFN (10 μM), 15-PGJ2 (10 μM) or DMF (50 μM) (15-PG: 15-PGJ2). Cells and supernatants were harvested after 5 h and analysed for inflammasome activation by ELISA measurement of IL-1p and Western blots as indicated. (C) Freshly isolated PBMCs from human blood were primed overnight with upLPS (100 ng/ml) and treated with SFN (10 μM), tBHQ (10 μM), DMF (50 μM) or 15-PGJ2 (10 μM) 1 h before inflammasome activation by nigericin (5 μM). ELISA measurement for secretion of IL-1β as readout for inflammasome activation was performed after 5 h. (D) HPKs or (E) differentiated and primed THP-1 cells were pretreated with cycloheximide (CHX, 30 μg/ml) to block protein synthesis for 1 h before SFN (10 μM) was added to the cells and after an additional hour the inflammasome was activated by (D) irradiation with UVB or (E) treatment with nigericin (5 μM). Cells and supernatants were harvested after (D) 6 h or (E) 3.5 h and analysed for inflammasome activation by Western blot as indicated. (A-E) Representative experiments performed at least three times are shown. Statistics: (A-C) Error bars represent the mean±SD of a representative experiment performed in triplicates. One-way ANOVA was performed. **P≤0.01; ***P≤0.001.
(A-C) HPKs were irradiated with (A) UVB or treated with (B) nigericin (5 μM) and cells and supernatants were harvested at different time points as indicated. Western blots for expression and activation of the indicated proteins. Specific bands are marked with an asterisk. (C) Expression of Nrf2 and Nrf2 target genes was determined by qRT-PCR. (D, E) THP-1 cells were differentiated with PMA (27 nM) for 3 d, primed with upLPS (100 ng/ml) overnight and treated with nigericin (5 μM) or MSU (150 μg/ml). Cells and supernatants were harvested at different time points as indicated and analysed for (D) expression and activation of the proteins as indicated by Western blot and (E) expression of Nrf2 and Nrf2 target genes by qRT-PCR. (F) HPKs were transfected with specific siRNAs as indicated (scr: scrambled, c1: caspase-1, K1; Keap1), 2 d later irradiated with UVB or treated with nigericin (5 μM). Cells were harvested after 1 h or 5 h, and lysates were analysed for the expression of the indicated proteins by Western blot.

NLRP3 inflammasome [4] = experiment: UVB irradiation-induced inflammasome activation in HPKs (IL-1β ELISA, Western blot); type: cell-based, human; details: FIG. 2A, 8A-C; for inflammasome activation (processed caspase-1, mature IL-1β and -18 in the supernatant): different doses, UVB 30 min later, harvested after 5 h
Source text: as §2, §3, §4
FIG. 8: (A-C) HPKs were treated with the Nrf2 activating compounds (A) SFN, (B) DMF, and (C) 15d-PGJ2, irradiated with UVB 30 min later and harvested after 5 h. Analogous experiment as described in FIG. 2A for tBHQ. (D) THP-1 cells were differentiated with TPA for 3 d and primed with LPS overnight. Then, cells were treated with the solvent DMSO, SFN (10 μM) or 15-PGJ2 (10 μM). After 30 min the inflammasome was activated by nigericin treatment and cells and supernatants were harvested after 2.5 h. Western blots showing prolL-1β and mature IL-1p in the lysate and supernatant. 20% lysate and supernatant of a 12 well was used, respectively, in order to allow a comparison. IL-1β was quantified in the supernatant by ELISA and cytotoxicity by LDH release.

[5] = tested on: Monosodium urate (MSU) crystal-induced peritonitis; experiment: MSU crystal-induced peritonitis mouse model (neutrophils in peritoneal lavage); type: in vivo; details: mice, oral gavage 20 mg/kg for six days, 6 h post 2 mg MSU crystals, vs control mice, n=7, FIG. 3E
Experimental: as §7
Mice were challenged with 2 mg of MSU crystals for 6 hours as previously described (Chen et a Olin Invest 2006. 116: 2262-2271).
Mice treated by gavage with (A, B, C) SFN (25 mg/kg) in PBS or (D, E, F) DMF (20 mg/kg) in H2O containing 0.08% methocel and 10% DMSO, vehicle-treated mice served as control. Regime for (A) SFN or (D) DMF treatment. Peritonitis was induced by peritoneal injection of 2 mg MSU crystals, (B, E) After 6 h the number of neutrophils of the peritoneal lavage was determined by flow cytornetry. […] Statistics: Student's t-test. (B, C) n≥3, (E, F) n=7. *P≤0.05; **P≤0.01

NLRP3 inflammasome [6] = molecular target: T1, NLRP3 inflammasome; experiment: Nigericin-induced IL-1β secretion in human PBMCs (ELISA); type: cell-based; details: 5 h, FIG. 2C
Source text: as §2, §3, §4

Nrf2 [7] = experiment: Nrf2 stabilisation and nuclear accumulation in human primary keratinocytes (Western blot); type: cell-based; details: HPKs, FIG. 6E,F; for expression of the other Nrf2 complex proteins Keap1, Cul3, and Rbx1: 1 h; for stabilisation and nuclear accumulation of Nrf2 protein: harvested after 1 h
Experimental: (§5) Human primary keratinocytes (HPKs) constitutively express pro-IL-1β and inflammasome proteins.
(§6) FIG. 6: Bone marrow (BM) cells were isolated from Nrf2-deficient mice and wt litterfnates and differentiated into dendritic cells (DCs). (A, B) After priming with upLPS overnight, BMDCs were treated with the NLRP3 inflammasome activators nigericin (20 μM), zymosan (20 μg/ml), MSU (150 μg/ml), ATP (5 mM) or transfected with poly(dA:dT) (1 μg/ml) for activation of the AIM2 inflammasome. After 6 h, supernatants were analysed for secretion of IL-1β by (A) ELISA or (B) Western blot. Mock-treated but primed BMDCs were analysed for expression of inflammasome proteins and pro-IL-1β at the (C) mRNA level by qRT-PCR or at the (D) protein level by Western blot. (B, D) Duplicates from two individual mice per genotype are shown (biological replicates). (E-G) HPKs were treated with the Nrf2 activators SFN (10 μM), tBHQ (10 μM), DMF (50 μM) and 15d-PGJ2 (10 μM). After 1 h, the cells were harvested and analysed for expression of the indicated proteins using total cell lysates (E) or cytoplasmic and nuclear lysates (F). Western blots for the nuclear protein lamin NC and the cytoplasmic protein α-tubulin served as controls. Specific bands are marked with an asterisk. (G) Total RNA was isolated after 8 h and qRT-PCR was performed for quantification of expression of the Nrf2 target genes glutamate-cysteine ligase, catalytic subunit (GCLC), glutamate-cysteine ligase, modifier subunit (GCLM), and NAD(P)H dehydrogenase, quinone 1 (N001). (A-G) Representative experiments performed at least three times are shown. […] Mann-Whitney test was performed. […] Mann-Whitney test was performed. *P≤0.05

[8] = tested on: Nrf2 target genes (GCLC, GCLM, NAD(P)H dehydrogenase, quinone 1); experiment: Nrf2 target gene expression in HPKs (qRT-PCR); type: cell-based, human; details: RNA after 8 h, FIG. 6G
Experimental: as §5
qRT-PCR was performed with the LightCycler 480 SYBR Green Master or the FastStart Universal SYBR Green Master (both Roche, Rotkreuz, Switzerland) using total cellular RNA. Specific primer pairs (Supplementary Table 2) were designed to generate an approximately 150 bp fragment flanking an intron-exon border of the corresponding gene. The LightCycler 480 96-well version (ROCHE, Rotkreuz, Switzerland) or the ViiA 7 Real-Time FOR System (Life Technologies, Carlsbad, US-CA) was used for reaction and detection according the instructions of the manufacturer.
as §6

THP-1 cells = experiment: Block of protein synthesis in THP-1 cells (Western blot); type: cell-based, human; details: THP-1, 30 μg/ml for 1 h before priming with upLPS overnight, FIG. 7E
Experimental: To determine the effects of Nrf2 activating compounds on inflammasome activation, the inventors treated keratinocytes with different doses of SFN, tBHQ, DMF or 15d-PGJ2 and irradiated the cells with UVB. […] As the Nrf2 activators were added to the cells only 15 to 30 min prior to inflammasome activation, it is unlikely that Nrf2 target genes are involved in inflammasome inhibition.
as §1

T1 sequence (Q96P20 whole entry): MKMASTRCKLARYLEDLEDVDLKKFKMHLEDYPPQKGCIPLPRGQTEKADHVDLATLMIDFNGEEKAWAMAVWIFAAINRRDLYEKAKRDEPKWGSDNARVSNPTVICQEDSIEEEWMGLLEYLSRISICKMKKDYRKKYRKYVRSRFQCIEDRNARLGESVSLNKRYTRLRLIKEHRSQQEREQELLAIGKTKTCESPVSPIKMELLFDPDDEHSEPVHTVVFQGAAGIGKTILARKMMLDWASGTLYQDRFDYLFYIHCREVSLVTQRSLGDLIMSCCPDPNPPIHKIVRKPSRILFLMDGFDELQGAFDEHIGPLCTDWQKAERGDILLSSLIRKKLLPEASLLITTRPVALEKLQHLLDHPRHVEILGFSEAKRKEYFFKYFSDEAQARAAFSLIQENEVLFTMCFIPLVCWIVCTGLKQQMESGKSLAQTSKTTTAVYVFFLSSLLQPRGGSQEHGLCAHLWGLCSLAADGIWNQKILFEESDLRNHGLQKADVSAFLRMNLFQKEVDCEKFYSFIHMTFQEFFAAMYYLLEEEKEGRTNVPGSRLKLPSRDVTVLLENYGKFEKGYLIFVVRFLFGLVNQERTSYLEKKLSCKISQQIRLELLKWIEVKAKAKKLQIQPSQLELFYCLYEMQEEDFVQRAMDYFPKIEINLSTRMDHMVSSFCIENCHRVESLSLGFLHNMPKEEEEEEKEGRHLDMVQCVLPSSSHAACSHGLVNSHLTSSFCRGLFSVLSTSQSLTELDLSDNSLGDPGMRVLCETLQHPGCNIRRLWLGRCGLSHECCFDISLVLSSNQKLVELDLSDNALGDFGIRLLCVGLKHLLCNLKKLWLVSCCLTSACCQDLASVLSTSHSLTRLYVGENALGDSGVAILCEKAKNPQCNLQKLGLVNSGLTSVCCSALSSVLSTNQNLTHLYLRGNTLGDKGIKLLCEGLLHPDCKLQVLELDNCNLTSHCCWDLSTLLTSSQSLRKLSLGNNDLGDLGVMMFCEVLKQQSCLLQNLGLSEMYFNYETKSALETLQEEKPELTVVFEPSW

## CC(=O)OCOC(=O)CN(CC(=O)OCOC(C)=O)c1ccccc1OCCOc1ccccc1N(CC(=O)OCOC(C)=O)CC(=O)OCOC(C)=O [BAPTA-AM]
Nrf2 [1]; 12.5 μM for 10 min
  inflammasome activation-induced Nrf2 degradation: blocked

## COC(=O)/C=C/C(=O)OC [DMF, dimethyl fumarate]
[2]
  expression of Nrf2 target genes in the liver: increased mRNA expression
NLRP3 inflammasome [3]
  IL-1β secretion: inhibited IL-1β secretion
NLRP3 inflammasome [4]; UVB, same concentrations
  relative efficiency/potency of inflammasome inhibition between compounds: less potent in inflammasome inhibition than SFN
NLRP3 inflammasome [4]
  inflammasome activation (processed caspase-1, mature IL-1β and -18 in the supernatant): inhibited inflammasome activation in a dose-dependent manner
[5]
  number of neutrophils in the peritoneum: significantly reduced
NLRP3 inflammasome [6]; 50 μM 1 h before nigericin (5 μM)
  IL-1β secretion: inhibited IL-1β secretion
Nrf2 [7]; 50 μM
  expression of the other Nrf2 complex proteins Keap1, Cul3, and Rbx1: not affected
  stabilisation and nuclear accumulation of Nrf2 protein: fast and robust stabilisation and nuclear accumulation of Nrf2 protein
[8]; 50 μM
  expression of classical Nrf2 target genes: induction of classical Nrf2 target genes

## N.S=C(S)N1CCCC1 [PDTC]
Nrf2 [1]; 500 μM for 10 min
  inflammasome activation-induced Nrf2 degradation: blocked

## C[C@@H]1C[C@@H]([C@H](O)CC2CC(=O)NC(=O)C2)C(=O)[C@@H](C)C1 [cycloheximide]
THP-1 cells
  protein synthesis: blocks protein synthesis

## CC(C)(C)c1cc(O)ccc1O [tBHQ, tert-butylhydroquinone]
NLRP3 inflammasome [4]
  inflammasome activation (processed caspase-1, mature IL-1β and -18 in the supernatant): inhibited inflammasome activation in a dose-dependent manner
NLRP3 inflammasome [6]; 10 μM 1 h before nigericin (5 μM)
  IL-1β secretion: inhibited IL-1β secretion
Nrf2 [7]; 10 μM
  expression of the other Nrf2 complex proteins Keap1, Cul3, and Rbx1: not affected
  stabilisation and nuclear accumulation of Nrf2 protein: fast and robust stabilisation and nuclear accumulation of Nrf2 protein
[8]; 10 μM
  expression of classical Nrf2 target genes: induction of classical Nrf2 target genes
